Experimental data taken from patent US9556150B2, “Inhibitors of bruton's tyrosine kinase” (Hoffmann-La Roche Inc., priority 2013, dated 2017).
pIC50: −log10 of the molar value. Structures can show the parent of a compound that is named as a salt.

molecular target: Bruton's Tyrosine Kinase (BTK), inactivated state (Homo sapiens (Human), UniProt Q06187); test: Bruton's Tyrosine Kinase (BTK) Inhibition TR-FRET (Time Resolved FRET) competition assay; type: binding; conditions: TR-FRET competition with Kinase Tracer 178, BTK-Eu complex, 18-24 h at 14° C.
Protocol: Bruton's Tyrosine Kinase (BTK) Inhibition TR-FRET (Time Resolved FRET) Assay
This BTK competition assay measures compound potency (IC50) for the inactivated state of Bruton's Tyrosine Kinase using FRET (Förster/Fluorescence Resonance Energy Transfer) technology. The BTK-Eu complex was incubated on ice one hour prior to use at a starting concentration of 50 nM BTK-Bioease™: 10 nM Eu-streptavidin (Perkin-Elmer Catalog#AD0062). The assay buffer consisted of 20 mM HEPES (pH 7.15), 0.1 mM DTT, 10 mM MgCl2, 0.5 mg/ml BSA with 3% Kinase Stabilizer (Fremont Biosolutions, Catalog #STB-K02). After 1 h, the reaction mixture from above was diluted 10 fold in assay buffer to make 5 nM BTK: 1 nM Eu-Streptavidin complex (donor fluorophore). 18 μl of a mixture of 0.11 nM BTK-Eu and 0.11 nM Kinase Tracer 178 (Invitrogen, Catalog #PV5593,) with BTK-Eu alone as no negative control, was then dispensed into 384-well flat bottom plates (Greiner, 784076). Compounds to be tested in assay were prepared as 10× concentrations and serial dilution in half-log increments was performed in DMSO so as to generate 10 point curves. To initiate the FRET reaction, compounds prepared as 10× stock in DMSO was added to the plates and the plates were incubated 18-24 h at 14° C.
After the incubation the plates were read on a BMG Pherastar Fluorescent plate reader (or equivalent) and used to measure the emission energy from the europium donor fluorophore (620 nm emission) and the FRET (665 nm emission). The negative control well values were averaged to obtain the mean minimum. The positive “no inhibitor” control wells were averaged to obtain the mean maximum. Percent of maximal FRET was calculated using following equation: % max FRET=100×[(FSR cmpd−FSR mean min)/(FSR mean max−FSR mean min)]
where FSR=FRET Signal ratio. % Max FRET curves were plotted in Activity Base (Excel) and the IC50(%), hill slope, z′ and % CV were determined. The mean IC50 and standard deviation will be derived from duplicate curves (singlet inhibition curves from two independent dilutions) using Microsoft Excel.
Representative compound data for this assay are listed below in Table II.

Bruton's Tyrosine Kinase (BTK), inactivated state, sequence (Q06187 whole entry): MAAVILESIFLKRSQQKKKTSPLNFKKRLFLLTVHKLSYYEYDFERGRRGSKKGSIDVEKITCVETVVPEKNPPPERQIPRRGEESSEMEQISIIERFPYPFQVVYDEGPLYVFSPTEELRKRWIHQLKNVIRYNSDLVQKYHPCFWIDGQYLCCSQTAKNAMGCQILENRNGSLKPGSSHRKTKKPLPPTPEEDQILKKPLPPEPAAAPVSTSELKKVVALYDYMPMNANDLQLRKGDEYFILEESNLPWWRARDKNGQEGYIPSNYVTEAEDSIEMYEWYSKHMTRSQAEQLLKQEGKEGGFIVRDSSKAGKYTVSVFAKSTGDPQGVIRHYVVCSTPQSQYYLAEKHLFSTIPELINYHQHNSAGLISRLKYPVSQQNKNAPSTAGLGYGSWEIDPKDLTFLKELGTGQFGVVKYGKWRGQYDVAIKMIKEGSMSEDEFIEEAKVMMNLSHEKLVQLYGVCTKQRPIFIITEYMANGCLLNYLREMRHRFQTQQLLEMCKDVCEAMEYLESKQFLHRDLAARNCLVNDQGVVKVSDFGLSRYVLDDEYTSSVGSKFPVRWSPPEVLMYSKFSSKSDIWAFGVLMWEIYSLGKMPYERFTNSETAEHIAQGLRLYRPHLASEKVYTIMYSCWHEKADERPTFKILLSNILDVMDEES

Compared with `CN(C)C(=O)c1ccccc1Oc1ccc(-n2ncc(C(=O)c3cc4cc(C(=O)NCCN(C)C(=O)OC(C)(C)C)ccc4[nH]3)c2N)c(Cl)c1` [Example I-55, {2-[(2-{5-Amino-1-[2-chloro-4-(2-dimethylcarbamoyl-phenoxy)-phenyl]-1H-pyrazole-4-carbonyl}-1H-indole-5-carbonyl)-amino]-ethyl}-methyl-carbamic acid tert-butyl ester], `CNCCNC(=O)c1ccc2[nH]c(C(=O)c3cnn(-c4ccc(Oc5ccccc5C(=O)N(C)C)cc4Cl)c3N)cc2c1` [Example I-56, 2-{5-Amino-1-[2-chloro-4-(2-dimethylcarbamoyl-phenoxy)-phenyl]-1H-pyrazole-4-carbonyl}-1H-indole-5-carboxylic acid (2-methylamino-ethyl)-amideacetic acid salt] is 0.22 log units higher in pIC50: 8.29 for the first, 8.51 for the second. The second is the more potent here.

First: CN(C)C(=O)c1ccccc1Oc1ccc(-n2ncc(C(=O)c3cc4cc(C(=O)N5CCOCC5)ccc4[nH]3)c2N)c(Cl)c1 [Example I-57, 2-(4-{5-Amino-4-[5-(morpholine-4-carbonyl)-1H-indole-2-carbonyl]-pyrazol-1-yl}-3-chloro-phenoxy)-N,N-dimethyl-benzamide]
Second: CNC1CCN(C(=O)c2ccc3[nH]c(C(=O)c4cnn(-c5ccc(Oc6ccccc6C(=O)N(C)C)cc5Cl)c4N)cc3c2)CC1 [Example I-58, 2-(4-{5-Amino-4-[5-(4-methylamino-piperidine-1-carbonyl)-1H-indole-2-carbonyl]-pyrazol-1-yl}-3-chloro-phenoxy)-N,N-dimethyl-benzamide]
The pIC50 of the first is 0.20 log units lower: 8.48 for the first, 8.68 for the second. The second is the more potent here.

`CN(C)C(=O)c1ccccc1Oc1ccc(-n2ncc(C(=O)c3cc4cc(C(=O)O)ccc4[nH]3)c2N)c(Cl)c1` [Example I-59, 2-{5-Amino-1-[2-chloro-4-(2-dimethylcarbamoyl-phenoxy)-phenyl]-1H-pyrazole-4-carbonyl}-1H-indole-5-carboxylic acid] gave a pIC50 of 7.92.
